What was measured:
Format in all cases: biochemical
[1] = biological target: T1, PA-hST6Gal II (human ST6Gal II) (Homo sapiens, UniProt Q96JF0); test: Sialyltransferase activity of PA-hST6Gal II toward acceptor substrates; settings: PA-hST6Gal II; incorporation with Galβ1,4GlcNAc taken as 100; 0.5 mg/ml glycolipids, 1 mg/ml glycoproteins and oligosaccharides
T1 construct: amino acids 33-529 in the case of human ST6Gal II; signal peptide of mouse immunoglobulin IgM (N); made in house; host or cells: COS-7 cells, transient expression of pcDSA-hST6Gal II; protein recovered from medium on IgG-Sepharose
T1 sequence (Q96JF0 33-529): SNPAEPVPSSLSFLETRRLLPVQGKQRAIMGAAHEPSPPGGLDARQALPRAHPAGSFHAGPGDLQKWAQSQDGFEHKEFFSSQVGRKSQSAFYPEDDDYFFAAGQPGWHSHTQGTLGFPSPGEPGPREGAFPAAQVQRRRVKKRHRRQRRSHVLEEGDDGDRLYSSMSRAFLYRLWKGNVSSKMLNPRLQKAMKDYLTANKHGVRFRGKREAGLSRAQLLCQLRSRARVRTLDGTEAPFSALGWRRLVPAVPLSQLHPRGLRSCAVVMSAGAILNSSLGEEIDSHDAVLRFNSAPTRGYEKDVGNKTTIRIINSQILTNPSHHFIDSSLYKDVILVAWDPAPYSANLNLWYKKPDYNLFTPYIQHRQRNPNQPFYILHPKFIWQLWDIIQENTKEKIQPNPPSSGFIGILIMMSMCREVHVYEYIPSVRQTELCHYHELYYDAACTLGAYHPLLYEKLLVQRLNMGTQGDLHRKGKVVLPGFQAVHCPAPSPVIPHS
Procedure: (§1) Using each expression vector and lipofectamine (Invitrogen), transient expression was carried out in COS-7 cells (Kojima, N. et al. (1995) FEBS Lett. 360, 1-4). The proteins of the present invention secreted from the cells into which each expression vector had been introduced were named as PA-hST6Gal II (human) and PA-mST6Gal II (mouse). PA-hST6Gal II and PA-mST6Gal II were adsorbed to IgG-Sepharose (Amersham Pharmacia Biotech), and were then recovered from medium. Sialyltransferase activity was measured as follows according to the method of Lee et al. (Lee, Y.-C. et al. (1999) J Biol. Chem. 274, 11958-11967). A reaction mixture (10 μl) containing 50 mM MES buffer (pH 6.0), 1 mM MgCl2, 1 mM CaCl2, 0.5% Triton CF-54, 100 μM CMP-[^14C]-NeuAc, a substrate sugar chain (which was added at 0.5 mg/ml in the case of glycolipids, and at 1 mg/ml in the case of glycoproteins or oligosaccharides), and a PA-hST6Gal II or PA-mST6Gal II suspension, was incubated at 37° C. for 3 to 20 hours. Thereafter, in the case of glycolipids, the reaction product was purified with a C-18 column (Sep-Pak Vac 100 mg; Waters) and the purified product was used as a sample. In the case of oligosaccharides or glycoproteins, the reaction product was directly used as a sample. Thus, the obtained sample was subjected to analysis. In the case of oligosaccharides or glycolipids, the sample was spotted on a silica gel 60 HPTLC plate (Merck), and it was then developed with a developing solvent consisting of 1-propanol:ammonia water:water=6:1:2.5 (for oligosaccharides), or a developing solvent consisting of chloroform:methanol: 0.02% CaCl2=55:45:10 (for glycolipids). In the case of glycoproteins, analysis was carried out by SDS-polyacrylamide gel electrophoresis. The obtained radioactivities were visualized with a BAS2000 radio image analyzer (Fuji Film) and then quantified.

human ST6Gal I = biological target: T2, human ST6Gal I (Homo sapiens, UniProt P15907); test: Sialyltransferase activity of human ST6Gal I toward acceptor substrates (comparison); settings: incorporation with Galβ1,4GlcNAc taken as 100; 0.5 mg/ml glycolipids, 1 mg/ml glycoproteins and oligosaccharides
T2 sequence (P15907 1-406): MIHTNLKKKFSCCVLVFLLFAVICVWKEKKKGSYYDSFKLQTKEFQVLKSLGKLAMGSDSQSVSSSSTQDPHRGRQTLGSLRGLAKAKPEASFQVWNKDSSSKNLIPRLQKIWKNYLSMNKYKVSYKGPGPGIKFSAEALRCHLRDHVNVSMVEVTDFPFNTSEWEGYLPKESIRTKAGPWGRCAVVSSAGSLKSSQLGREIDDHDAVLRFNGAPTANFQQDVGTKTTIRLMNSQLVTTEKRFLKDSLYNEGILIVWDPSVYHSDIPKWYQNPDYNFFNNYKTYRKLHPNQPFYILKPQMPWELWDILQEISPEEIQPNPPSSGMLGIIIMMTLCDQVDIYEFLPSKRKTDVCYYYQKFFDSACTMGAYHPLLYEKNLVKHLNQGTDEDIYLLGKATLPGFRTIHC
Procedure: as §1
In contrast, there were no glycolipids, which could be substrates of both the enzymes, as far as the inventors have examined. The activity of human ST6Gal I on oligosaccharides was also examined for comparison. […] (FIG. 10).

[2] = biological target: T3, PA-mST6Gal II (mouse ST6Gal II) (Mus musculus, UniProt Q76K27, R48S); test: Sialyltransferase activity of PA-mST6Gal II toward acceptor substrates; settings: PA-mST6Gal II; incorporation with Galβ1,4GlcNAc taken as 100; 0.5 mg/ml glycolipids, 1 mg/ml glycoproteins and oligosaccharides
T3 construct: amino acids 31-524 in the case of mouse ST6Gal II; signal peptide of mouse immunoglobulin IgM (N); made in house; host or cells: COS-7 cells, transient expression of pcDSA-mST6Gal II; protein recovered from medium on IgG-Sepharose
T3 sequence (Q76K27 31-524 R48S): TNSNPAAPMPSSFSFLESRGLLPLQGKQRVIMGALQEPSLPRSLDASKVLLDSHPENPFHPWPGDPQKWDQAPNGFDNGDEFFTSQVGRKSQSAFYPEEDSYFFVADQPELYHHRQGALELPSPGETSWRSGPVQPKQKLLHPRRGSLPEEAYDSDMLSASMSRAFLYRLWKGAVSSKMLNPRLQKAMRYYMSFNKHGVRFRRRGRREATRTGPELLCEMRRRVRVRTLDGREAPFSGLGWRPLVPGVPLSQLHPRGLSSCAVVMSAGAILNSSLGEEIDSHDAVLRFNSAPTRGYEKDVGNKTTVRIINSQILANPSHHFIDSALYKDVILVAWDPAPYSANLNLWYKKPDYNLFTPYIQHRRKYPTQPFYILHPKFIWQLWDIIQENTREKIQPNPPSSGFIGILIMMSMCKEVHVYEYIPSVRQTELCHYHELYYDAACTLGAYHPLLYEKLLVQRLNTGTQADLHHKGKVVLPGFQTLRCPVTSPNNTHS
Procedure: as §1

[3] = biological target: T4, PA-mST8Sia VI (mouse ST8Sia VI) (Mus musculus, UniProt Q8K4T1); test: Sialyltransferase activity of PA-mST8Sia VI toward acceptor substrates; settings: for Relative rate (%) Mouse ST8SiaVI: incorporation with Fetuin taken as 100, substrate 0.5 mg/ml glycolipids, 1 mg/ml glycoproteins, monosaccharides and oligosaccharides
T4 construct: amino acids 26-398 in the case of mouse ST8Sia VI; signal peptide of mouse immunoglobulin IgM (N); made in house; host or cells: COS-7 cells, transient expression of pcDSA-mST8Sia VI; protein recovered from medium on IgG-Sepharose
T4 sequence (Q8K4T1 26-398): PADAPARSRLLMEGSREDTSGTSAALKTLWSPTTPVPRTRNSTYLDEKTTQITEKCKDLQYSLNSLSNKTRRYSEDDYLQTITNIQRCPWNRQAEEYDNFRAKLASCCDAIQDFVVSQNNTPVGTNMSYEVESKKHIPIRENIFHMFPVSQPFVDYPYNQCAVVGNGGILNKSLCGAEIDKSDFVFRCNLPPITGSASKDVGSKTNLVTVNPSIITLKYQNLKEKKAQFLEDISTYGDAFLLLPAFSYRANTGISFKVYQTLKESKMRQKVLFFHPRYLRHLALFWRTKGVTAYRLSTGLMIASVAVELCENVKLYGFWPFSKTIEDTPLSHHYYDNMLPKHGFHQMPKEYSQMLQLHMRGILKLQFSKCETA
Procedure: Using each expression vector and lipofectamine (Invitrogen), transient expression was carried out in COS-7 cells (Kojima, N. et al. (1995) FEBS Lett. 360, 1-4). The proteins of the present invention secreted from the cells into which each expression vector had been introduced were named as PA-mST8Sia VI (mouse) and PA-hST8Sia VI (human). PA-mST8Sia VI and PA-hST8Sia VI were adsorbed to IgG-Sepharose (Amersham Pharmacia Biotech), and were then recovered from medium. Sialyltransferase activity was measured as follows according to the method of Lee et al. (Lee, Y.-C. et al. (1999) J. Biol. Chem. 274, 11958-11967). A reaction solution (10 μl) containing 50 mM MES buffer (pH 6.0), 1 mM MgCl2, 1 mM CaCl2, 0.5% Triton CF-54, 100 μM CMP-[^14C]-NeuAc, a glycoconjugate (which was added at 0.5 mg/ml in the case of glycolipids, and at 1 mg/ml in the case of glycoproteins or oligosaccharides), and a PA-mST8Sia VI or PA-hST8Sia VI suspension, was incubated at 37° C. for 3 to 20 hours. Thereafter, in the case of glycolipids, the reaction product was purified with a C-18 column (Sep-Pak Vac 100 mg; Waters) and the purified product was used as a sample, and in the case of oligosaccharides or glycoproteins, the reaction product was directly used as a sample. Thus, the obtained samples were subjected to analysis. In the case of oligosaccharides or glycolipids, the sample was spotted on a silica gel 60 HPTLC plate (Merck), and was then developed with a developing solvent consisting of ethanol:pyridine:n-butanol:water:acetic acid=100:10:10:30:3 (for oligosaccharides), a developing solvent consisting of 1-propanol:ammonia water:water=6:1:2.5 (for oligosaccharides), or a developing solvent consisting of chloroform:methanol: 0.02% CaCl2=55:45:10 (for glycolipids). In the case of glycoproteins, analysis was carried out by SDS-polyacrylamide gel electrophoresis. The obtained radioactivities were visualized with a BAS2000 radio image analyzer (Fuji Film) and then quantified.

| activity of PA-mST8Sia VI on the substrate (in words) [3] | Relative rate (%) Mouse ST8SiaVI [3] | Compound | further results |
| --- | --- | --- | --- |
| showed activity | 1.0% | NeuAcα2,3Galβ1,3GalNAcβ1,4Galβ1,4Glcβ1-Cer [GM1b] |  |
| showed activity | 2.6% | NeuAcα2,6Galβ1,3GalNAcβ1,4Galβ1,4Glcβ1-Cer [GSC-68] |  |
|  | 0% | Galβ1,3GalNAcβ1,4(NeuAcα2,8NeuAcα2,3)Galβ1,4Glcβ1-Cer [GD1b] |  |
| showed activity | 1.0% | NeuAcα2,3Galβ1-Cer [GM4] |  |

More lines, now with the values behind:

| Compound | activity of PA-mST8Sia VI on the substrate (in words) [3] | Relative rate (%) Mouse ST8SiaVI [3] | further results |
| --- | --- | --- | --- |
| Galβ1,4GlcNAcβ1,3Galβ1,4Glcβ1-Cer [Paragloboside] |  |  | Relative rate (%) Human ST6Gal II [1]: 0%; Relative rate (%) Human ST6Gal I (human ST6Gal I): 0.3%; Relative rate (%) Mouse ST6Gal II [2]: 0% |
| CC(=O)N[C@H]1[C@H](O[C@H]2[C@@H](O)[C@@H](CO)O[C@@H](O[C@H]3[C@H](O)[C@@H](O)C(O)O[C@@H]3CO)[C@@H]2O)O[C@H](CO)[C@@H](O[C@@H]2O[C@H](CO)[C@H](O)[C@H](O)[C@H]2O)[C@@H]1O (stereo partly drawn) [Lacto-N-neotetraose, Galβ1,4GlcNAcβ1,3Galβ1,4Glc] |  |  | Relative rate (%) Human ST6Gal II [1]: 86.2%; Relative rate (%) Human ST6Gal I (human ST6Gal I): 101.6%; Relative rate (%) Mouse ST6Gal II [2]: 128.8% |
| Galβ1,3GlcNAc [Type I] |  |  | Relative rate (%) Human ST6Gal II [1]: 0%; Relative rate (%) Human ST6Gal I (human ST6Gal I): 4.2%; Relative rate (%) Mouse ST6Gal II [2]: 0% |
| CC(=O)N[C@H]1[C@H]([C@H](O)[C@H](O)CO)OC(O)(C(=O)O)C[C@@H]1O (stereo partly drawn) [N-Acetylneuraminic acid] |  | 0% |  |
| CC(=O)N[C@H]1[C@H]([C@H](O)[C@H](O)CO)O[C@@](O[C@H]2[C@@H](O)[C@@H](CO)OC(O)[C@@H]2O)(C(=O)O)C[C@@H]1O (stereo partly drawn) [3′-Sialylgalactose, NeuAcα2,3Gal] |  | 13.9% |  |
| CC(=O)N[C@H]1C(O)O[C@H](CO)[C@H](O)[C@@H]1O (stereo partly drawn) [N-Acetylgalactosamine] |  | 0% |  |
| O=C[C@H](O)[C@@H](O)[C@@H](O)[C@H](O)CO [Galactose] |  | 0% |  |
| CC(=O)NC1C(O)OC(CO)C(OC2OC(CO)C(O)C(OC3(C(=O)O)CC(O)C(NC(C)=O)C(C(O)C(O)CO)O3)C2O)C1O (stereo not drawn) [3′-Sialyl-N-acetyllactosamine, NeuAcα2,3Galβ1,4GlcNAc] |  | 411% |  |
| NeuAcα2,6Galβ1,4GlcNAcβ1,3Galβ1,4Glcβ1-Cer [2,6-SPG] | showed activity | 0.98% |  |
| NeuAcα2,3Galβ1,4GlcNAcβ1,3Galβ1,4Glcβ1-Cer [2,3-SPG] | showed activity | 3.5% |  |
| CC(=O)N[C@@H]1[C@@H](O)[C@H](O[C@@H]2O[C@H](CO[C@]3(C(=O)O)C[C@H](O)[C@@H](NC(C)=O)[C@H]([C@H](O)[C@H](O)CO)O3)[C@H](O)[C@H](O)[C@H]2O)[C@@H](CO)O[C@H]1O [6′-Sialyl-N-acetyllactosamine, NeuAcα2,6Galβ1,4GlcNAc] |  | 88.7% |  |
| CC(=O)N[C@H]1[C@H]([C@H](O)[C@H](O)CO)O[C@@](OC[C@H]2OC(O)[C@H](O)[C@@H](O)[C@H]2O)(C(=O)O)C[C@@H]1O (stereo partly drawn) [6′-Sialylgalactose, NeuAcα2,6Gal] |  | 2.0% |  |

From patent US20060057696A1, “Sugar chain synthases” (priority 2002, published 2006)
